Assay results as given in patent US20090105562A1, “SYSTEM AND METHODS FOR SCREENING OR ANALYZING TARGETS” (TAIPEI VETERANS GENERAL HOSPITAL, priority 2007, published 2009).

Columns and labels:
Format in all cases: cell-based, rat
[1] = test system: LPS-treated NSCs; experiment: LPS-induced apoptotic activity in NSCs, caspase 8 and 3 ELISA
Description: (§1) IM was purchased from Sigma Chem. Co., St Louis, Mo., USA. NSCs were seeded on 24-well plates at a density of 2×10^4 cells/well in medium, followed by methyl thiazol tetrazolium assay (MTT assay) (Sigma-Aldrich Co., St Louis, Mo., USA) for cell viability. NSCs were incubated with 0.25 mg/ml MTT for 4 hours at 37° C. and the reaction was terminated by the addition of 100% isopropanol. The amount of MTT fromazon product was determined using a microplate reader and the absorbance was measured at 560 nm (SpectraMax 250, Molecular Devices, Sunnyvale, Calif., USA). NSCs were exposed to 0, 1, 2, 5, 10, 20, 30, 40, 50, 100, 200, and 300 μM of IM for 1, 3, 5, and 7 days, respectively. The activities of caspases 8 and 3 (Medical and Biological Laboratories Co., Ltd., Nagoya, Japan), and the concentration of IL-6, IL-1 and TNF-α (Pharmingen, San Diego, Calif., USA) were determined by ELISA kits and quantified by reading at 490 nm (MRX; Dynatech Laboratories, Chantilly, Va., USA). Each individual sample was analyzed in triplicate.
(§2) Double-stranded, short interfering RNA (siRNA) of BDNF and Bcl-2 were chemically synthesized by Ambion Inc., Austin, Tex., USA). The sense and antisense sequences of BDNF were designed as follows: Sense: […]tt; Antisense: AGCTTAAAAAGAG CTGtt, starting from nucleotide 137 of the Bcl-2 sequence (accession number L14680). The sense and antisense sequences of Bcl-2 were designed as follows: Sense: GCGCUGGAUAUAACUUCUUtt; Antisense: AAGAAGUUAUAUC CAGCGCtt, starting from nucleotide 137 of the Bcl-2 sequence (accession number L14680). In this test, the siRNA control used was siRNA-Cy3 (QIAGEN; sense sequence: UUCUCCGAACGUGU CACGUdTdT-3′-Cy3 and the complement 5′-ACGUGACACGUUCGGAGAAdTdT-3′-Cy3) as an irrelevant control. The transfection of siRNA was performed using Lipofectamine 2000 (Invitrogen, Carlsbad, Calif., USA) according to the manufacturer's instructions. In brief, cells were harvested with 0.25% trypsin, 1 mM ethylenediaminetetraacetic acid (EDTA) in phosphate buffered saline (PBS) without Ca^2+ and Mg^2+, and plated in six-well plates at 10^5 per cm^2. Then 3.5 μl siRNA (100 μM solution) was mixed with 125 μl serum-free culture medium for 5 minutes at room temperature. During this incubation period, 5 μl of Lipofectamine 2000 was diluted in 125 μl serum-free culture medium. These two mixtures were combined, mixed gently, and incubated for 20 minutes at room temperature for complex formation. This 250 μl of siRNA-Lipofectamine mixture was then added into the cells in a final volume of 2.5 ml per well. The transfected cells were cultured and fed daily with fresh medium until they were assayed.

[2] = test system: Bcl-2; experiment: Bcl-2 protein expression in NSCs by western blot and immunocytochemistry
Description: After the treatment with IM, the cell lysates of the NSCs were collected and the concentration of protein was determined by using the Protein Assay kit (Bio-Rad, Hercules, Calif., USA). Cell extracts with sample buffer were boiled for 5 minutes and then separated by 10% SDS-PAGE gel. After electrophoresis, the gel was transferred onto a PVDF membrane for immunoblotting. The membrane was first blocked by incubation in non-fat milk at room temperature for 2 hours, then incubated with anti-Bcl-2 antibody (Upstate Biotechnology Inc, Waltham, Mass., USA), and anti-β actin (Chemicon International Inc, Temecula, Calif., USA) for 2 hours at room temperature, washed five times with Tris-Buffered Saline Tween-20 (TBST), and then incubated further at room temperature with horseradish peroxidase-conjugated secondary antibody for 2 hours. Then the membrane was washed six times with TBST and specific bands were made visible by chemiluminescence (Santa Cruz Biotechnology, Santa Cruz, Calif., USA).
as §2
An avidin-biotin complex method was used for the immunohistochemical staining in the differentiated NSCs. Following washes with the 3% hydrogen peroxide, sodium azide and antigens were retrieved using a microwave. Each slide was then treated with antibodies for Bcl-2 (Upstate Biotechnology, Waltham, Mass., USA), Nestin (Chemicon, Temecula, Calif., USA), 4′, 6-diamidino-2-phenylindole (DAPI; Chemicon, Temecula, Calif., USA) and MAP2 (Chemicon, Temecula, Calif., USA). Immunoreactive signals were detected with a mixture of biotinylated rabbit anti-mouse IgG and Fluoresave (Calbiochem, La Jolla, Calif., USA) under confocal microscopy (Olympus, FV300). Each individual sample was analyzed in triplicate. Furthermore, apoptotic cells were identified by the TUNEL method (In Situ Cell Death Detection Kit, POD, Roche Boehringer Mannheim Corp., IN, USA) as described in Chiou et al., J. Immunol. 167, 4098-4103, 2001. Briefly, the cells with cover slips were washed with 1× phosphate buffered saline (PBS), fixed with 4% of paraformaldehyde for 10 minutes, permeabilized with 0.1% of triton X-100 for 5 mins, and incubated with the TUNEL reagent provided for 1 hour. Chromogenic development was then applied with 3-amino-9-ethyl-carbazole, and slides were counterstained with H & E stain. […]

[3] = test system: LPS-treated NSCs; experiment: Cell survival rate of LPS-treated NSCs
Description: as §1
as §2, with “Then 3.5 μl siRNA (100 μM solution) was mixed with 125 μl serum-free culture medium for 5 minutes at room temperature. During this incubation period, 5 μl of Lipofectamine 2000 was diluted in 125 μl serum-free culture medium. These two mixtures were combined, mixed gently, and incubated for 20 minutes at room temperature for complex formation. This 250 μl of siRNA-Lipofectamine mixture was then added into the cells in a final volume of 2.5 ml per well. The transfected cells were cultured and fed daily with fresh medium until they were assayed.” left out

[4] = test system: LPS-treated NSCs; experiment: ELISA of IL-1β, IL-6 and TNF-α in LPS-treated NSCs
Description: as §1, §2

[5] = LPS (100 ng/ml) exposure, Day 7 IM-treated vs without IM, p<0.05
[6] = vs only LPS-treated NSCs, IM 3 μM, p<0.05
[7] = agent added to LPS-treated NSCs with IM, U0126 40 μM

SMILES	apoptotic activity of caspase 3 [1, 5]	apoptotic activity of caspase 8 [1, 5]	protein expression level of Bcl-2 in LPS-treated NSCs ([2]; 3 μM IM vs 1, 2 μM IM-LPS-treated, only LPS-treated and control groups)	protein level of Bcl-2 (western blot) ([2]; Day 3 IM-treated vs Day 3 non-IM-treated NSCs, p<0.05)	protein expression of Bcl-2 (immunohistochemistry) ([2]; Day 7 IM-treated NSCs vs NSCs without IM treatment)	expression level of Bcl-2 protein (western blot) ([2]; Day 7 IM-treated vs Day 3 or Day 5 IM-treated NSCs, p<0.05)	Bcl-2 expression in NSCs ([2]; treatment with either agent alone)	cell survival rate in LPS-treated NSCs ([3]; vs only LPS-treated NSCs, LPS 100 ng/ml)	IL-1β production in LPS-treated NSCs [4, 6]	IL-6 production in LPS-treated NSCs [4, 6]	TNF-α production in LPS-treated NSCs [4, 6]	apoptotic activities (caspase 8, caspase 3 and TUNEL assays) in LPS- and IM-treated NSCs ([1]; agent added to LPS- and IM-treated NSCs, U0126 40 μM)	Bcl-2 expression induced by IM in NSCs ([2]; agent added to IM-treated NSCs)	cell viability in LPS-treated NSCs with IM ([3]; after added treatment with the agent)	level of IL-1β in LPS-treated NSCs with IM [4, 7]	level of IL-6 in LPS-treated NSCs with IM [4, 7]	level of TNF-α in LPS-treated NSCs with IM [4, 7]
CN(C)CCCN1c2ccccc2CCc2ccccc21 [IM, imipramine]	significantly decreased	significantly decreased	significantly increased	higher	significantly increased	significantly increased	activate	significantly increases	effectively reduces	effectively reduces	effectively reduces	–	–	–	–	–	–
N#CC(=C(/N)Sc1ccccc1N)/C(C#N)=C(\N)Sc1ccccc1N [U0126]	–	–	–	–	–	–	–	–	–	–	–	significantly enhanced	effectively blocked	dramatically decreased	significantly increased	significantly increased	significantly increased
